According to patent US11298383B2, “Lactobacillus and bacillus based direct fed microbial treatment for poultry and method of use” (priority 2016, dated 2022):

Tests used:
[1] = system: inflammatory cytokine gene expression (MIP2, TNFα, IL-6) in IEC-6 rat intestinal epithelial cells; assay: Inflammatory cytokine gene expression (qPCR) in IEC-6 cells with and without LPS challenge (Example 6); format: cell-based; conditions: LPS alone, 1 hr at 37° C.
[2] = system: avian pathogenic Escherichia coli (APEC); format: in vivo; conditions: 3 days of age; ½ dose in ovo gentamycin; all birds treated with the product
[3] = system: avian pathogenic Escherichia coli (APEC); assay: APEC levels in GI tract of commercial broilers at 12-15 days, with and without in ovo gentamycin (Example 2); format: in vivo; conditions: GI tract of broilers at 12-15 days of age

Substance | increase in gene expression of all three inflammatory cytokines (MIP2, TNFα, IL-6) relative to unstimulated control cells [1] | APEC levels, gentamycin-treated vs untreated birds [2] | birds with detectable levels of APEC [3] | average APEC level ([3]; ten birds per treatment)
Lipopolysaccharide | > 50 fold |  |  | 
gentamycin |  | not statistically different | 2 out of 10 birds | 6.6×10^1 CFU/g
